# Experimental data from US12434967B2, “Method for preparing a solid material for storing ozone, the material and the uses thereof” (priority 2019, dated 2025).
# Assays:
# [1] = ozone release, first test: water added to powder in closed reactor, ozone detector; format: physicochemical; details: same conditions, after adding water
# Description: In the first test, about 1.5 g of ozone storage material in powder form have been placed in a glass cup, which in turn has been placed in a glass reactor of volume 1.4 litres. The reactor can be hermetically closed and has been maintained at ambient temperature (˜20° C.).
# A portable ozone detector (model X-an-5000 from Dräger, equipped with an XXS O3 cell specifically for ozone detection, detection limit equal to 0.02 ppm and resolution equal to 0.01 ppm, response time <10 s at 20° C.) has been introduced into the reactor and switched on near the powder cup. The detector thus placed makes it possible to continuously emphasise the presence of ozone in the reactor, from an ozone concentration higher than the detection limit of 0.02 ppm.
# Secondly, using a graduated glass pipette, a volume of approximately 3 ml of distilled water has been introduced onto the powder through one of the upper openings of the reactor. The reactor has then been immediately hermetically closed again to monitor the course of the vapour phase composition of the reactor with the detector over time. The dissolution of part of the material (about ⅓ of the initial amount) by this addition of water (as the material is relatively soluble in water), caused a rapid increase in the ozone concentration over time as read on the detector (for example 0.1 ppm measured in 40 s; 0.2 ppm in 100 s). […]
# [2] = in water under ambient conditions; cited from earlier work
Molecule,ozone release on the detector [1],lifetime [2]
(2-hydroxypropyl)-β-cyclodextrin [native HP-β-CD],no ozone release was observed,
O=[O+][O-] [ozone],,about 20 minutes
